# Target: His-Tagged hOGA (human O-GlcNAcase) (Homo sapiens (Human), UniProt O60502)
# Assay: Human O-GlcNAcase enzyme inhibition assay (Example B01)
# Format: biochemical
# Conditions: not given
# Chain of His-Tagged hOGA (human O-GlcNAcase) (O60502 whole entry): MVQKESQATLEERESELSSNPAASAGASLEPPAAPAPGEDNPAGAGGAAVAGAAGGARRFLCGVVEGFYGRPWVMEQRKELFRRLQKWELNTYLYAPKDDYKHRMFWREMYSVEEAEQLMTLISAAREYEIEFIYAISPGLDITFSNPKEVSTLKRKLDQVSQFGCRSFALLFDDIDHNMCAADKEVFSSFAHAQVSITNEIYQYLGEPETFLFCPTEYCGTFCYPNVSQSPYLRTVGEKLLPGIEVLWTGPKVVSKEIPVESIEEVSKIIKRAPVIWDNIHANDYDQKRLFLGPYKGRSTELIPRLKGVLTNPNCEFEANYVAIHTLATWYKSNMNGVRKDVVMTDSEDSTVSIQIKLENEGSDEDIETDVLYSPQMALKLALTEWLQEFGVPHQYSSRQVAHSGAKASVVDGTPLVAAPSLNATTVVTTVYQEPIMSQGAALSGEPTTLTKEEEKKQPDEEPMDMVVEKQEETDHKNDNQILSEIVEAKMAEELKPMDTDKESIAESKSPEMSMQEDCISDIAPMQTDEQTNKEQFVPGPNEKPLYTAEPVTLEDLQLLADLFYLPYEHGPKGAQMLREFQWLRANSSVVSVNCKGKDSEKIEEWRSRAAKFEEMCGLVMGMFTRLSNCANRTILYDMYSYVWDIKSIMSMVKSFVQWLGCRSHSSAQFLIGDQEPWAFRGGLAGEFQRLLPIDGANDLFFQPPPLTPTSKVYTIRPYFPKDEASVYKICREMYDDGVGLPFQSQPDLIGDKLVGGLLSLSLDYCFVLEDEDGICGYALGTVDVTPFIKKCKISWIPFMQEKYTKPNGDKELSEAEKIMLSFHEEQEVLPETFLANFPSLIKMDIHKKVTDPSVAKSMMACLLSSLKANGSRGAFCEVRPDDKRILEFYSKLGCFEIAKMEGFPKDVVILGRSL
row,"OGA inhibitor activity, in words",SMILES
1,very potent OGA inhibitors,CC(=O)Nc1cnc(N2CCN(C(C)c3ccc4c(c3)OCC4)CC2)nc1 (racemic) [Example 129]
2,very potent OGA inhibitors,"CC(=O)Nc1cnc(N2CCN(C(C)c3ccc4scnc4c3)CC2)nc1 (racemic) [Example 116, N-(2-(4-(1-(benzord1thiazol-5-yl)ethyl)piperazin-1-yl)pyrimidin-5-yl)acetamide]"
3,very potent OGA inhibitors,C[C@@H](c1ccc2c(c1)OCO2)N1CCN(c2ncc(C(=O)N(C)C)cn2)CC1 [Example 137]
4,very potent OGA inhibitors,"C[C@@H](c1ccc2c(c1)OCO2)N1CCN(c2ncc(C3(O)CCCC3)cn2)CC1 [Example 181, (S)-1-(2-(4-(1-(benzofdlH,31dioxol-5-yl)ethyl)piperazin-1-yl)pyrimidin-5-yl)cyclopentan-1-ol]"
5,very potent OGA inhibitors,"CC(=O)Nc1cnc(N2CCN(C(C)c3ccc4c(c3)OCO4)CC2)nc1 (racemic) [Example 72, N-(2-(4-(1-(benzordlH,31dioxol-5-yl)ethyl)piperazin-1-yl)pyrimidin-5-yl)acetamide]"
6,very potent OGA inhibitors,"C[C@@H](c1ccc2c(c1)OCCO2)N1CCN(c2ncccn2)CC1 (single isomer, unassigned) [Example 34, (R)-2-(4-(1-(2,3-Dihydrobenzorbiri,41dioxin-6-yl)ethyl)piperazin-1-yl)pyrimidine or (S)-2-(4-(1-(2,3-Dihydrobenzorbiri^1dioxin-6-yl)ethyl)piperazin-1-yl)pyrimidine]"
7,very potent OGA inhibitors,"CC(c1ccc2c(c1)OCO2)N1CCN(c2ncc(CO)cn2)CC1 (racemic) [Example 52, (2-(4-(1-(benzordiri,31 dioxol-5-yl)ethyl)piperazin-1-yl)pyrimidin-5-yl)methanol]"
8,very potent OGA inhibitors,"C[C@@H](c1ccc2c(c1)OCO2)N1CCN(c2nnc(N)s2)CC1 [Example 132, (S)-5-(4-(1-(benzordiri,31dioxol-5-yl)ethyl)piperazin-1-yl)-1,3,4-thiadiazol-2-amine]"
9,very potent OGA inhibitors,"C[C@@H](c1ccc2c(c1)OCO2)N1CCN(c2ncc(C3(O)CCCCC3)cn2)CC1 [Example 180, (S)-1-(2-(4-(1-(benzo[dl][1,31dioxol-5-yl)ethyl)piperazin-1-yl)pyrimidin-5-yl)cyclohexan-1-ol]"
10,very potent OGA inhibitors,"CNC(=O)c1csc(N2CCN([C@@H](C)c3ccc4c(c3)OCO4)CC2)n1 (single isomer, unassigned) [Example 56, (/?)-2-(4-(1-(Benzordiri,31dioxol-5-yl)ethyl)piperazin-1-yl)-N-methylthiazole^4-carboxamide or ^S)-2-(4-(1-(benzordiri,31dioxol-5-yl)ethyl)piperazin-1-yl)-N-methylthiazole^4-carboxamide]"
11,very potent OGA inhibitors,"CNC(=O)c1cnc(N2CCN([C@@H](C)c3ccc4c(c3)OCO4)CC2)nc1 [Example 134, (S) 2-(4-(1-(benzordiri,31dioxol-5-yl)ethyl)piperazin-1-yl)-N-methylpyrimidine-5-carboxamide]"
12,very potent OGA inhibitors,"Cc1ncc(N2CCN(C(C)c3ccc4c(c3)OCO4)CC2)s1 (racemic) [Example 37, 5-(4-(1-(Benzordiri,31dioxol-5-yl)ethyl)piperazin-1-yl)-2-methylthiazole]"

# Same assay, conditions: OGA IC50 (M), OGA enzyme inhibition assay; activity range classes
row,SMILES,IC50 [M]
1,"CNC(=O)c1cnc(N2CCN([C@@H](C)c3ccc4c(c3)OCO4)CC2)s1 (single isomer, unassigned) [Example 66]",< 5e-08
2,"CC(=O)Nc1cnc(N2CCN(C(C)c3ccc4cccnc4c3)CC2)nc1 (racemic) [Example 120, N-(2-(4-(1-(quinolin-7-yl)ethyl)piperazin-1-yl)pyrimidin-5-yl)acetamide]",2e-07 to 1e-06
3,"Cc1csc(N2CCN([C@H](C)c3ccc4c(c3)OCO4)CC2)n1 (single isomer, unassigned) [Example 15, (R)-2-(4-(1-(benzordiri,31dioxol-5-yl)ethyl)piperazin-1-yl)-4-methylthiazole or (S)-2-(4-(1-(benzordiri,31 dioxol-5-yl)ethyl)piperazin-1-yl)-4-methylthiazole]",5e-08 to 2e-07
4,"C[C@H](c1ccc2nccnc2c1)N1CCN(c2ncc(C(F)(F)F)cn2)CC1 (single isomer, unassigned) [Example 104, (S)-6-(1-(4-(5-(trifluoromethyl)pyrimidin-2-yl)piperazin-1-yl)ethyl)quinoxaline or (R)-6-(1-(4-(5-(trifluoromethyl)pyrimidin-2-yl)piperazin-1-yl)ethyl)quinoxaline]",5e-08 to 2e-07
5,COc1cc(C(C)N2CCN(c3nnc(NC(C)=O)s3)CC2)ccc1Cl (racemic) [Example 88],1e-06 to 1e-05
6,"CNC(=O)c1cnc(N2CCN([C@@H](C)c3ccc4c(c3)OCO4)CC2)s1 (single isomer, unassigned) [Example 65]",1e-06 to 1e-05
7,"CC(=O)Nc1cnc(N2CCN([C@H](C)c3ccc4c(c3)OCO4)CC2)nc1 (single isomer, unassigned) [Example 77]",1e-06 to 1e-05

# Same assay, conditions: OGA enzyme inhibition assay; activity range classes; read-out: OGA IC50
row,IC50 [M],SMILES
1,< 5e-08,"C[C@@H](c1ccc2c(c1)OCCO2)N1CCN(c2ncc(C(=O)N3CCC(O)CC3)s2)CC1 (single isomer, unassigned) [Example 81, (/?)-(2-(4-(1-(2,3-Dihydrobenzorbin,41dioxin-6-yl)ethyl)piperazin-1-yl)thiazol-5-yl)(4-hydroxypiperidin-1-yl)methanone or (S)-(2-(4-(1-(2,3-Dihydrobenzorbin,41dioxin-6-yl)ethyl)piperazin-1-yl)thiazol-5-yl)(4-hydroxypiperidin-1-yl)methanone]"
2,< 5e-08,"C[C@@H](c1ccc2c(c1)OCCO2)N1CCN(c2ncc(C(=O)N(C)CCN(C)C)s2)CC1 (single isomer, unassigned) [Example 71, (R)-2-(4-(1-(2,3-Dihydrobenzorb1H,41dioxin-6-yl)ethyl)piperazin-1-yl)-N-(2-(dimethylamino)ethyl)-N-methylthiazole-5-carboxamide or (S)-2-(4-(1-(2,3-dihydrobenzorbiri^1dioxin-6-yl)ethyl)piperazin-1-yl)-N-(2-(dimethylamino)ethyl)-N-methylthiazole-5-carboxamide]"
3,< 5e-08,"C[C@@H](c1ccc2c(c1)OCCO2)N1CCN(c2ncccn2)CC1 (single isomer, unassigned) [Example 34, (R)-2-(4-(1-(2,3-Dihydrobenzorbiri,41dioxin-6-yl)ethyl)piperazin-1-yl)pyrimidine or (S)-2-(4-(1-(2,3-Dihydrobenzorbiri^1dioxin-6-yl)ethyl)piperazin-1-yl)pyrimidine]"
4,< 5e-08,"C[C@@H](c1ccc2c(c1)OCO2)N1CCN(c2nc3c(s2)CN(C)CC3)CC1 [Example 194, (S)-2-(4-(1-(benzordiri,31dioxol-5-yl)ethyl)piperazin-1-yl)-5-methyl-4,5,6,7-tetrahydrothiazoloi5,4-c1pyridine]"
5,5e-08 to 2e-07,"CC(c1ccc2c(c1)OCO2)N1CCN(c2nc(CN)cs2)CC1 (centres unmarked) [Example 84, (2-(4-(1-(benzordin,31 dioxol-5-yl)ethyl)piperazin-1-yl)thiazol-4-yl)methanamine]"
6,< 5e-08,"CNC(=O)c1csc(N2CCN([C@@H](C)c3ccc4c(c3)OCO4)CC2)n1 (single isomer, unassigned) [Example 56, (/?)-2-(4-(1-(Benzordiri,31dioxol-5-yl)ethyl)piperazin-1-yl)-N-methylthiazole^4-carboxamide or ^S)-2-(4-(1-(benzordiri,31dioxol-5-yl)ethyl)piperazin-1-yl)-N-methylthiazole^4-carboxamide]"
7,< 5e-08,"C[C@H](O)c1cnc(N2CCN([C@@H](C)c3ccc4c(c3)OCO4)CC2)nc1 (single isomer, unassigned) [Example 198]"
